Three compounds from ChEMBL document CHEMBL5726001, “Compounds for use in preparing heterocyclic triazole agonists of the APJ receptor” (2018) can be followed below.

One may read the EC50 as the concentration needed to bring the measured effect to its halfway point.

Structures are written as SMILES.

This assay addresses T1, Apelin receptor (Homo sapiens, UniProt P35414).
T1 sequence (P35414 whole entry): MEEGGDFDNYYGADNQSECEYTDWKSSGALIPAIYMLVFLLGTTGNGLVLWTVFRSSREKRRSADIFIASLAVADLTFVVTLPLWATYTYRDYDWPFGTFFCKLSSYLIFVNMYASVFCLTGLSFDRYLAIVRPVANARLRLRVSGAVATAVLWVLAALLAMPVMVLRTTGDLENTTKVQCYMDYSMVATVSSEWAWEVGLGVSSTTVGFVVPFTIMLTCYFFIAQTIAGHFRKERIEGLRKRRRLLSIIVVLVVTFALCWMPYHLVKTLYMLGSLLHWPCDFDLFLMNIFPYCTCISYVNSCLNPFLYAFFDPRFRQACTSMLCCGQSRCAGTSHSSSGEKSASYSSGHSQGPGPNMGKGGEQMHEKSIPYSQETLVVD
Nature of the assay: [35S]GTPgammaS Binding: The human APJ receptor was cloned by polymerase chain reaction and the gene encoding the receptor was subcloned in pFLAG-CMV-3 expression vector (Sigma, Saint Louis, Mo. USA) in-house at Amgen. A GTPγS binding assay was performed on membranes prepared from CHO cells stably expressing human APJ receptor. The optimum experimental conditions for the concentrations of GDP, MgCl2, and NaCl in the assay buffer were initially determined. The assay was performed in assay buffer [20 mM HEPES, pH 7.5, 5 mM MgCl2, and 0.1% (w/v) BSA with 200 mM NaCl, 3 μM GDP] and membranes expressing human APJ receptor/well along with WGA PS beads. The reaction was initiated by addition of 0.2 nM [35S]GTPγS (Perkin Elmer Life and Analytical Sciences, Waltham USA) in the absence or presence of various ligands and incubated at RT for 90 min. Nonspecific binding was determined in the presence of 100 μM GTPγS and was always less than 0.2% of total binding. All the results presented are means of several independent experiments and analyzed by non-linear regression methods using commercially available program Prism (GraphPad, San Diego, Calif.). On the technique in general: GTPγS resists hydrolysis and so accumulates on activated G proteins.
Regarding `COc1ncnc(OC)c1-n1c(NS(=O)(=O)[C@@H](C)[C@H](C)c2ncc(Cl)cn2)nnc1C1COC1`, the concentration for a half-maximal effect (EC50) was found to be 730 nM.

As for `COc1cccc(OC)c1-n1c(NS(=O)(=O)[C@@H](C)[C@@H](OC(C)C)c2ncc(C)cn2)nnc1[C@H]1COCCO1`, the EC50 came to 16 nM.

As for `CO[C@H]1CCC[C@@H](OC)[C@@H]1n1c(NS(=O)(=O)[C@@H](C)[C@H](C)c2ncc(C)cn2)nnc1C1CCCO1` (single isomer, unassigned), the EC50 came to 240 nM.
